Values of other authors in US20070254858A1, “Contraceptive and Acne Medication Combination and Treatment of Acne and Other Diseases with Reduced Side Effects” (priority 2006, published 2007).

Tests used:
[1] = in vivo
severe acne = conditions: within 12 to 16 weeks of isotretinoin treatment
[2] = test system: sebaceous gland / sebocytes
progesterone activity = conditions: 1 mg of progestin; activity of 1 mg of norethindrone taken as baseline
[3] = test system: androgen (testosterone-like) activity; conditions: 1 mg of progestin; activity of 1 mg of norethindrone taken as baseline

CC1=C(/C=C/C(C)=C/C=C/C(C)=C\C(=O)O)C(C)(C)CCC1 [isotretinoin, 13-cis-retinoic acid]
most significant side effect [1]: teratogenicity (birth defects)
people with severe acne in complete or near complete cure (severe acne): Up to 90%
effect of food on absorption (drug taken with food): absorption is enhanced
accumulation in the skin (during long term administration): no progressive accumulation
parent drug in urine (oral isotretinoin): No parent drug is identified in the urine
placental transfer (oral isotretinoin): crosses the placenta
half-life (oral isotretinoin, compared to etretinate): 7 to 37 h
reduction of sebocyte lipid synthesis ([2]; daily doses as low as 0.1 mg/kg after four weeks): 75%
reduction of sebaceous gland size ([2]; in vivo): up to 90%

C#C[C@]1(O)CC[C@H]2[C@@H]3CCC4=CC(=O)CC[C@@H]4[C@H]3CC[C@@]21C [norethindrone]
Progestational Activity (progesterone activity): 1

C[C@]12CCC(=O)C=C1[C@@H]1C[C@@H]1[C@H]1[C@@H]3[C@@H]4C[C@@H]4[C@@]4(CCC(=O)O4)[C@@]3(C)CC[C@@H]12 [drospirenone]
Androgen Activity [3]: 0
Progestational Activity (progesterone activity): 1.5

C#C[C@]1(OC(C)=O)CC[C@H]2[C@@H]3CCC4=CC(=O)CC[C@@H]4[C@H]3CC[C@@]21C [norethindrone acetate]
Progestational Activity (progesterone activity): 1.2

C#C[C@]1(O)CC[C@H]2[C@@H]3CCC4=CC(=NO)CC[C@@H]4[C@H]3CC[C@@]21CC (mixture of isomers) [norelgestromin]
Androgen Activity [3]: 1.9
Progestational Activity (progesterone activity): 1.3

C#C[C@]1(OC(C)=O)CC[C@H]2[C@@H]3CCC4=CC(=NO)CC[C@@H]4[C@H]3CC[C@@]21CC (mixture of isomers) [norgestimate]
Progestational Activity (progesterone activity): 1.3

C#CC1(O)CC[C@H]2[C@@H]3CCC4=CC(=O)CC[C@@H]4[C@H]3CC[C@@]21CC (mixture of isomers) [dl-norgestrel]
Progestational Activity (progesterone activity): 2.6

C#C[C@]1(O)CC[C@H]2[C@@H]3CCC4=CCCC[C@@H]4[C@H]3C(=C)C[C@@]21CC [desogestrel]
Progestational Activity (progesterone activity): 9

C#C[C@]1(OC(C)=O)CC[C@H]2[C@@H]3CCC4=C[C@@H](OC(C)=O)CC[C@@H]4[C@H]3CC[C@@]21C [ethynodiol diacetate]
Progestational Activity (progesterone activity): 1.4
